Measurements taken from patent US9695155B2, “Herbicidal substituted pyrimidinyloxy benzene compounds” (E. I. DU PONT DE NEMOURS AND COMPANY, priority 2013, dated 2017).

Experiments:
cocklebur = assay: Test E preemergence; type: in vivo, Xanthium strumarium; details: 16 g ai/ha, scale 0 to 100 (0 no effect, 100 complete control)
From the text: Seeds of plant species selected from corn (Zea mays), soybean (Glycine max), velvetleaf (Abutilon theophrasti), lambsquarters (Chenopodium album), wild poinsettia (Euphorbia heterophylla), palmer pigweed (Amaranthus palmeri), waterhemp (common waterhemp, Amaranthus rudis), surinam grass (Brachiaria decumbens), large (Lg) crabgrass (Digitaria sanguinalis), Brazilian crabgrass (Digitaria horizontalis), fall panicum (Panicum dichotomiflorum), giant foxtail (Setaria faberii), green foxtail (Setaria viridis), goosegrass (Eleusine indica), johnsongrass (Sorghum halepense), ragweed (common ragweed, Ambrosia elatior), barnyardgrass (Echinochloa crus-galli), sandbur (southern sandbur, Cenchrus echinatus), arrowleaf sida (Sida rhombifolia), Italian ryegrass (Lolium multiflorum), dayflower (Virginia (VA) dayflower, Commelina virginica), field bindweed (Convolvulus arvensis), morningglory (Ipomoea coccinea), nightshade (eastern black nightshade, Solanum ptycanthum), kochia (Kochia scoparia), yellow nutsedge (Cyperus esculentus), cocklebur (common cocklebur, Xanthium strumarium), smartweed (ladysthumb smartweed, and hairy beggarticks (Bidens pilosa), were planted into a silt loam soil and treated preemergence with test chemicals formulated in a non-phytotoxic solvent mixture which included a surfactant.
At the same time, plants from these crop and weed species and also horseweed (Canada horseweed, Conyza canadensis), waterhemp_RES1, (ALS & Triazine resistant common waterhemp, Amaranthus rudis), and waterhemp_RES2, (ALS & HPPD resistant common waterhemp, Amaranthus rudis) were planted in pots containing Redi-Earth® planting medium (Scotts Company, 14111 Scottslawn Road, Marysville, Ohio 43041) comprising spaghnum peat moss, vermiculite, wetting agent and starter nutrients were treated with postemergence applications of test chemicals formulated in the same manner. Plants ranged in height from 2 to 18 cm for postemergence treatments (1- to 4-leaf stage). Treated plants and controls were maintained in a greenhouse for 14 to 21 days, after which time all species were compared to controls and visually evaluated. Plant response ratings, summarized in Table E, are based on a scale of 0 to 100 where 0 is no effect and 100 is complete control. A dash (-) response means no test result.

soybean = assay: Test E postemergence; type: in vivo, Glycine max
Summary of the method: (§1)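 Compound in a non-phytotoxic solvent mixture with surfactant was applied preemergence to seeds in silt loam soil, or postemergence to plants 2 to 18 cm tall grown in peat-based potting medium. Plants were kept in a greenhouse for 14 to 21 days, then rated visually against untreated controls on a 0 (no effect) to 100 (complete control) scale.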

Brazilian crabgrass = assay: Test E postemergence; type: in vivo, Digitaria horizontalis
Summary of the method: as §1

barnyardgrass = assay: Test E postemergence; type: in vivo, Echinochloa crus-galli
Summary of the method: as §1

[1] = Postemergence, 31 g ai/ha, scale 0 to 100
[2] = Postemergence, 62 g ai/ha, scale 0 to 100
[3] = Postemergence, 125 g ai/ha, scale 0 to 100
[4] = Postemergence, 250 g ai/ha, scale 0 to 100
[5] = postemergence, 16 g ai/ha, scale 0 to 100, 0 no effect, 100 complete control

FC(F)(F)c1cnn(-c2ccccc2Oc2ncc(Cl)cn2)c1 [Compound 16]
Cocklebur plant response rating (cocklebur): 0
Plant response rating, Soybean (soybean; [1]): 30
Plant response rating, Soybean (soybean; [2]): 80
Plant response rating, Soybean (soybean; [3]): 95
Plant response rating, Soybean (soybean; [4]): 95
Plant response rating, Soybean (soybean; [5]): 15
Plant response rating, Crabgrass, Brazil (Brazilian crabgrass; [1]): 0
Plant response rating, Crabgrass, Brazil (Brazilian crabgrass; [2]): 10
Plant response rating, Crabgrass, Brazil (Brazilian crabgrass; [3]): 30
Plant response rating, Crabgrass, Brazil (Brazilian crabgrass; [4]): 40
Plant response rating, Crabgrass, Brazil (Brazilian crabgrass; [5]): 0
Plant response rating, Barnyardgrass (barnyardgrass; [1]): 0
Plant response rating, Barnyardgrass (barnyardgrass; [2]): 0
Plant response rating, Barnyardgrass (barnyardgrass; [3]): 10
Plant response rating, Barnyardgrass (barnyardgrass; [4]): 15
Plant response rating, Barnyardgrass (barnyardgrass; [5]): 0
